Results published in the supplement of paper PMC13380429.

Tests used:
Caco-2 [1] = experiment: cell viability relative to DMSO; higher = less toxic; details: 72 h
Calu-3 [2] = experiment: as above; details: 72 h
HepG2 [3] = experiment: as above; details: 72 h
U2OS [4] = experiment: as above; details: 72 h
Vero E6 [5] = experiment: as above; details: 72 h
Caco-2 [6] = experiment: relative viability EC50 (midpoint between 100% and the lowest measured viability); higher = less toxic; details: 72 h
Calu-3 [7] = experiment: as above; details: 72 h
HepG2 [8] = experiment: as above; details: 72 h
U2OS [9] = experiment: as above; details: 72 h
Vero E6 [10] = experiment: as above; details: 72 h
Caco-2 [11] = experiment: drug sensitivity score (DSS) for viability; higher = more toxic; extreme values may be limits of the assay; details: 72 h
Calu-3 [12] = experiment: as above; details: 72 h
HepG2 [13] = experiment: as above; details: 72 h
U2OS [14] = experiment: as above; details: 72 h
Vero E6 [15] = experiment: as above; details: 72 h
[16] = tested on: A549-ACE2 infected with SARS-CoV-2; experiment: cell count relative to DMSO; higher = less toxic; details: 24 h
[17] = tested on: A549-ACE2 infected with SARS-CoV-2; experiment: SARS-CoV-2 infection rate relative to DMSO; higher = more infection; details: 24 h
A549-ACE2 = experiment: drug-induced phospholipidosis relative to tamoxifen; higher = more phospholipidosis; details: 0.3 µM; 24 h
[18] = tested on: A549-ACE2 infected with SARS-CoV-2; experiment: morphology score (similarity to uninfected cells); higher = more like uninfected cells; details: 24 h

Nc1ncnc2c1ncn2[C@@H]1O[C@H](CO)C[C@H]1O [cordycepin]
cell viability [%]
Details	Caco-2 [1]	Calu-3 [2]	HepG2 [3]	U2OS [4]	Vero E6 [5]
1 nM	93.9	94.6	95.3	95.7	96.6
10 nM	99	98.6	98.9	99.3	97
100 nM	95.2	86.1	104	95	96.2
1000 nM	97.5	92.5	97.4	105	98.1
10000 nM	103	101	114	110	103

Details	drug sensitivity score	relative viability EC50 [µM]
Caco-2 [6]	–	> 10
Caco-2 [11]	0	–
Calu-3 [7]	–	> 10
Calu-3 [12]	0	–
HepG2 [8]	–	> 10
HepG2 [13]	0	–
U2OS [9]	–	> 10
U2OS [14]	0	–
Vero E6 [10]	–	> 10
Vero E6 [15]	0	–

NC1=N[C@@](c2cccc(-c3cncnc3)c2)(c2ccnc(C(F)F)c2)c2cccc(F)c21 [AZD3839]
cell viability [%]
Details	Caco-2 [1]	Calu-3 [2]	HepG2 [3]	U2OS [4]	Vero E6 [5]
1 nM	107	102	108	95.4	110
10 nM	102	98.4	103	99	106
100 nM	101	99.7	106	106	99.9
1000 nM	96.1	98.7	118	97.9	102
10000 nM	97	109	97.3	94.5	104

Details	drug sensitivity score	relative viability EC50 [µM]
Caco-2 [6]	–	> 10
Caco-2 [11]	0	–
Calu-3 [7]	–	> 10
Calu-3 [12]	0	–
HepG2 [8]	–	> 10
HepG2 [13]	0	–
U2OS [9]	–	> 10
U2OS [14]	0	–
Vero E6 [10]	–	> 10
Vero E6 [15]	0	–

COC(=O)C[C@](O)(CCCC(C)(C)O)C(=O)O[C@@H]1C(OC)=C[C@]23CCCN2CCc2cc4c(cc2[C@H]13)OCO4 [homoharringtonine]
Details	SARS-CoV-2 infection rate, [17] [%]	cell count, [16] [%]	cell viability, Caco-2 [1] [%]	cell viability, Calu-3 [2] [%]	cell viability, HepG2 [3] [%]	cell viability, U2OS [4] [%]	cell viability, Vero E6 [5] [%]	morphology score, [18]
1 nM	–	–	99.3	93.4	98.4	104	92.4	–
10 nM	–	–	102	91.1	89.1	101	103	–
100 nM	–	–	61.8	60.1	29.4	23	82.1	–
0.3 µM	12	68	–	–	–	–	–	0.32
1000 nM	–	–	24.7	27.3	6	6.6	12.8	–
3 µM	16	49	–	–	–	–	–	0.26
10 µM	19	42	–	–	–	–	–	0.3
10000 nM	–	–	27.9	22	1	0.3	0.5	–
30 µM	15	30	–	–	–	–	–	0.33

Details	drug sensitivity score	drug-induced phospholipidosis [%]	relative viability EC50 [µM]
A549-ACE2	–	-2.95	–
Caco-2 [6]	–	–	0.099
Caco-2 [11]	18.6	–	–
Calu-3 [7]	–	–	0.0897
Calu-3 [12]	18.5	–	–
HepG2 [8]	–	–	0.0497
HepG2 [13]	27	–	–
U2OS [9]	–	–	0.0616
U2OS [14]	26.8	–	–
Vero E6 [10]	–	–	0.273
Vero E6 [15]	18.2	–	–
